The subject of test [1] is GlyR. The format is cell-based, human. As to the method: (§1) To this end, human pluripotent NT2-YFP-I152L cells were differentiated into neuronal NT2-N-YFP-I152L cells as described in the Methods section and were seeded at a density of 2 × 10^4 cells in each well of a 96-well plate. 48 h later, the culture medium was completely removed and was replaced by 50 μl NaCl control solution.
(§2) Approximately 1 h prior to commencement of experiments culture media in 96-well plates was removed manually and was replaced by 50 μl standard control solution, which contained (in mM) NaCl 140, KCl 5, CaCl2 2, MgCl2 1, HEPES 10, and glucose 10 (pH 7.4, NaOH) upon washing the cells once in 50 μl standard control solution. […] All drugs were diluted from stocks at the day of the experiment and experiments were conducted at room temperature.
(§3) The experimental protocol involved imaging each well for 30 s at 2 Hz acquisition rate capturing the initial fluorescence intensity in the control situation as well as the test situation upon receptor activation, respectively. Liquid handling was performed manually.
(§4) Cells depicted in fluorescence micrographs were selected manually based on strongest quench for low and intermediate concentrations and based on cell morphology in experiments where high drug concentrations were applied. Registered images of fluorescent cells were segmented and quantitatively analyzed using NIS-Elements software (Nikon, Japan). The fluorescence signal of identified cells was measured in images acquired before and after the addition of agonist solution as the mean of all pixel values within the area of a cell. “% fluorescence quench” in chloride imaging experiments is defined as %fluorescence quench=(Finit−Ffinal)∗100/Finit where Finit and Ffinal are the initial and final values of fluorescence, respectively.
(§5) Individual concentration responses were constructed by pooling results from ten cells in one well exposed to agonist solution. Concentration-response relationships were fitted with the following equation: F= Fmax+Fmin− Fmax/1+([Agonist]/EC50)^nH where F is the fluorescence corresponding to a particular agonist concentration, [Agonist]; Fmin and Fmax are the minimal and maximal fluorescence values, respectively; EC50 is the concentration that elicits half-maximal activation; and nH is the Hill coefficient. Curve fits were performed using a least squares fitting routine (Origin 7G, OriginLab Corporation). All averaged results are expressed as mean ± SD.

Test [2] relates to GABAAR. It is filed as cell-based, human. To be noted: 1 μM GABA. As to the method:
as §1, §2, §3, §4, §5

The subject of test [3] is GABAAR. Nature of the test: Proportion of cells with at least 20% fluorescence quench at saturating GABA. To be noted: for Percentage of non-treated NT2-YFP-I152L stem cells responding with at least 20% fluorescence quench: 1 mM saturating GABA; for GABAAR-positive cells as percentage of the overall population / Percentage of cells per image with fluorescence quench of at least 20%: saturating GABA. The format is cell-based, human. From the text: (§6) The applicability of the established recombinant in vitro model for high-throughput GABAAR and GlyR-targeted screening in the context of lead identification and NT/DNT testing strongly depends on the proportion of GABAAR and GlyR positive NT2-N cells in the whole cell population. A very small percentage of GABAAR and GlyR expressing NT2-N cells requires a large number of individual experiments including technical and biological replicates to be conducted in order to obtain statistically sound results, potentially compromising the usability of the established cell line for the envisioned application. […] The threshold of 20% fluorescence quench was chosen because, from our experience, any measured cellular fluorescence change within a range of −20 to 20% reflects biological noise typical to the employed assay. As a starting point toward analysing the proportion of GABAAR and GlyR-positive cells we segmented the images of a total of 24 individual experiments from two different differentiation batches (GABAAR, batch #1: n = 7, batch #2: n = 6; GlyR, batch #1: n = 6, batch #2: n = 5) using a modified version of DetecTIFF^© software (Gilbert et al., [2009c]) employing two individual sets of parameters for the identification of small neuronal NT2-N-YFP-I152L and larger non-neuronal NT2-YFP-I152L cells. […] Exemplary segmentation masks created from the image shown in Figure 6A for quantitative analysis of fluorescence intensity and calculation of “% fluorescence quench” in small neuronal NT2-N-YFP-I152L cells and large non-neuronal cells are depicted in Figures 6B,C.
(§7) Images of fluorescent cells were segmented and quantitatively analyzed using a modified version of DetecTIFF® software (Gilbert et al., [2009c]). In brief, images were segmented using an iterative size and intensity-based thresholding algorithm and the fluorescence signal of identified cells was calculated as the mean of all pixel values within the area of a cell.

In test [4] the test system is GABAAR. The format is cell-based, human. The settings on record: GABA concentration-response, mean ± SD, n = 10. As to the method:
(§8) To assess whether the generated recombinant stem cell line is suitable to chloride imaging and functional profiling of GABAARs and GlyRs, NT2-YFP-I152L cells were differentiated into neuronal NT2-N- YFP-I152L cells as described in the Methods section and were seeded at defined density of 2 × 10^4 cells in each well of a 96-well plate. Two days later and approximately 1 h prior to fluorescence imaging, the culture medium was completely removed and was replaced by 50 μl NaCl control solution. The standard NaCl control solution contained (in mM): NaCl 140, KCl 5, CaCl2 2, MgCl2 1, HEPES 10, glucose 10, pH 7.4 using NaOH. The 96-well plate was placed onto the motorized stage of a high-content imaging system and cells were imaged in control solution to record cellular YFP fluorescence in unquenched state. Because YFP-I152L is almost insensitive to chloride, its fluorescence intensity is highest in NaCl solution allowing for optimal focussing into the optical layer of cells. […] Fluorescence quench was calculated at single cell level by quantitative analysis as described in the Methods section. […]
(§9) The experimental protocol involved imaging each well for 30 s at 2 Hz acquisition rate capturing the initial fluorescence intensity in the control situation as well as the test situation upon receptor activation, respectively. […]

Test [5] relates to GlyR. To be noted: mean ± SD, n = 10; for nH (Hill coefficient): glycine concentration-response. The procedure: as §8, §9
Cells depicted in fluorescence micrographs were selected manually based on strongest quench for low and intermediate concentrations and based on cell morphology in experiments where high drug concentrations were applied. Registered images of fluorescent cells were segmented and quantitatively analyzed using NIS-Elements software (Nikon, Japan). The fluorescence signal of identified cells was measured in images acquired before and after the addition of agonist solution as the mean of all pixel values within the area of a cell. “% fluorescence quench” in chloride imaging experiments is defined as %fluorescence quench=(Finit−Ffinal)∗100/Finit where Finit and Ffinal are the initial and final values of fluorescence, respectively. […]

Test [6] has as its system GlyR. To be noted: for Percentage of non-treated NT2-YFP-I152L stem cells responding with at least 20% fluorescence quench: 1 mM saturating glycine.
From the text: as §6, §7

A further test concerns GABAARs. Also noted: method as in Kumamoto and Murata, 1995. To be noted: ref Kumamoto and Murata, 1995; cited from earlier work.
A further test relates to GlyRs. On the set-up: method as in Harvey et al., 1999. To be noted: ref Harvey et al., 1999, cited from earlier work.
The mark [7] stands for this setting: read-out: IC50 (Glycine), 3 μM glycine, n = 10.
The mark [8] stands for this setting: 3 μM glycine, n = 10, read-out: IC50 (Glycine).

Several values for one entry are separate records, joined by “and”; a condition that tells them apart may be missing. Identical values can stand only once. Like-named read-outs stand apart in the source and are kept apart here.

On to `CN1CCc2cc3c(cc2[C@H]1[C@@H]1OC(=O)c2c1ccc1c2OCO1)OCO3` [Bicuculline, bicuculline], for which the “Sensitivity of glycine-induced I- influx compared to GABA-dependent anion influx (lower)” value in the test on GlyR [1] (ratio of IC50 vs glycine and IC50 vs GABA) is recorded as “about 10 fold”. Further, the IC50 (as a rule, the concentration that gives 50% inhibition) is 13.4 µM in the test on GlyR [1] (setting [7]) and 1.1 µM with GABAAR [2] (read-out: IC50 (GABA), n = 10).
As for `N#Cc1nn(-c2c(Cl)cc(C(F)(F)F)cc2Cl)c(N)c1[S+]([O-])C(F)(F)F` (stereo not drawn) [Fipronil, fipronil], the IC50 in the test with GlyR [1] (setting [8]) is 1.5 µM; with GABAAR [2] (read-out: IC50 (GABA), n = 10), 10.8 µM.
Take `NCCCC(=O)O` [GABA, γ-aminobutyric acid]: the figures for the “Percentage of non-treated NT2-YFP-I152L stem cells responding with at least 20% fluorescence quench” value with GABAAR [3] (replicate #1) and with GABAAR [3] (replicate #2) were 0.62% and 0.37%, respectively. Further, the “GABAAR-positive cells as percentage of the overall population” value in the test on GABAAR [3] (batch #1) amounted to 17 ± 8%; in the test on GABAAR [3] (batch #2) it was 21 ± 9%. In addition, the “Percentage of cells per image with fluorescence quench of at least 20%” value in the test on GABAAR [3] (large non-neuronal cells, batch #1, n = 7) is recorded as 3 ± 1%; in the test on GABAAR [3] (large non-neuronal cells, batch #2, n = 6) it was 6 ± 2%; in the test on GABAAR [3] (small cells (NT2-N-YFP-I152L), batch #1, n = 7), 28 ± 13%; in the test with GABAAR [3] (small cells (NT2-N-YFP-I152L), batch #2, n = 6) it was 32 ± 12%. For the same molecule, in the test with GABAAR [4], the “nH (Hill coefficient)” value was 1.8 ± 0.4 and 1.8.
Turning to `NCC(=O)O` [Glycine, glycine], the “nH (Hill coefficient)” value in the test with GlyR [5] is reported as 1.5; with GlyR [5] (listed as glycine), 1.5 ± 0.2. Moreover, the EC50 in the test on GlyR [5] (read-out: EC50 (half-maximal activation concentration), glycine 0.1-1000 μM in NaI solution, quench 30 s after activation) is 4.3 µM. The “Percentage of cells per image with fluorescence quench of at least 20%” value is 36 ± 14% and 35 ± 7% in the test with GlyR [6]; 2 ± 1% with GlyR [6] (saturating glycine, large non-neuronal cells, batch #1, n = 6); 4 ± 2% in the test with GlyR [6] (saturating glycine, large non-neuronal cells, batch #2, n = 5). Also, the “Percentage of non-treated NT2-YFP-I152L stem cells responding with at least 20% fluorescence quench” value was found to be 0.68% with GlyR [6] (replicate #1) and 0.92% in the test with GlyR [6] (replicate #2). Further, the “GlyR-positive cells as percentage of the overall population” value in the test with GlyR [6] (saturating glycine, batch #1) amounted to 20 ± 9%; in the test on GlyR [6] (saturating glycine, batch #2) it was 19 ± 4%.
On to `Cl[C@H]1[C@H](Cl)[C@@H](Cl)[C@@H](Cl)[C@H](Cl)[C@H]1Cl` [Lindane, lindane], for which the IC50 with GlyR [1] (setting [8]) was determined as 0.0781 µM. The “Inhibition of GABA-induced anion influx (in words)” value in the test with GABAAR [2] is reported as “no dose-dependent inhibitory activity”.
Turning to `O=C1C[C@@H]2OCC=C3CN4CC[C@]56c7ccccc7N1[C@H]5[C@H]2[C@H]3C[C@H]46` [Strychnine, strychnine], the IC50 in the test on GlyR [1] (setting [7]) amounted to 0.0172 µM. Besides, the “Inhibition of GABA-induced anion influx (in words)” value in the test on GABAAR [2] was “specifically inhibited glycine but not GABA-induced anion-influx”.
Regarding `[Cl-].[Cl-].[Zn+2]` [Zinc, zinc chloride], in the test on GABAARs, the “Concentrations inhibiting GABAARs” value is more than 10 µM. The “Concentrations at which inhibition of glycine-induced anion influx was observed” value in the test with GlyR [1] (3 μM glycine) is more than 100 µM. Further, the IC50 in the test on GlyR [1] (3 μM glycine, zinc 10 nM-1 mM, could not be calculated, presumed, read-out: IC50 (glycine-induced anion influx)) is more than 1000 µM; in the test on GABAAR [2] (zinc 10 nM-1 mM, could not be calculated, presumed, read-out: IC50 (GABA-induced anion influx)) it was more than 1000 µM. In addition, the “Increase of glycine-induced fluorescence quench” value with GlyR [1] (in presence of 1 and 10 μM zinc, not significant) is reported as “about 10%”. In the test on GABAAR [2], the “Concentrations at which inhibition of GABA-induced anion influx was observed” value was more than 100 µM. Further, the “Concentrations inhibiting glycine-activated currents” value with GlyRs (high concentrations) was more than 100 µM. Also, the “Concentrations potentiating glycine-activated currents” value with GlyRs (low concentrations) was less than 10 µM.
Turning to picrotoxin, the 50% inhibitory concentration (IC50) with GlyR [1] (setting [8]) was determined as 1.1 µM; in the test on GABAAR [2] (read-out: IC50 (GABA), n = 10) it was 5.8 µM. The “Sensitivity of GlyR compared to GABAARs (higher)” value in the test with GlyR [1] (ratio of IC50 vs GABA and IC50 vs glycine) is recorded as “approximately 5 fold”.

The record behind these values is PMC4923258, “A Recombinant Human Pluripotent Stem Cell Line Stably Expressing Halide-Sensitive YFP-I152L for GABAAR and GlyR-Targeted High-Throughput Drug Screening and Toxicity Testing” (Frontiers in Molecular Neuroscience, 2016).
